The target in experiment [1] is OGG1 (Homo sapiens (Human), UniProt O15527). As to the kind of experiment: In vitro OGG1 activity assay. The experiment is classed as biochemical. Conditions: 800 pM OGG1 enzyme, 2 nM human APEX1, 10 nM 8-oxoA:C substrate. In outline:
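Read-out is fluorescein fluorescence, with compounds in DMSO added first, then enzyme and substrate. OGG1 excises its substrate base from a quenched fluorophore-labelled duplex, and surplus APEX1 cuts the resulting apurinic site. The duplex then melts and fluorescence rises in proportion to glycosylase activity.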

Experiment [2] concerns MLE12 cells. The experiment can be described thus: Cell viability assay in MLE12 cells (resazurin). Type of experiment: cell-based, mouse. Particulars: TNF-α 20 ng/ml, resazurin added after 24 hours culture. Put shortly: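 MLE12 cells (7500 cells/well) were seeded onto 11-point duplicate compound dose-responses, with TNF-α (final 20 ng/ml) added after 1 hour at 37° C. After 24 hours, resazurin was added for 6 hours and resorufin fluorescence read (ex544 nm/em595 nm). EC50 values were calculated by curve fitting.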

Experiment [3] relates to CCL2. As to the kind of experiment: Mouse CCL2 assay in MLE12 cells. Conditions: MLE12 cells, TNF-α 20 ng/ml, supernatant after 30 hours, HTRF, read-out: CCL2 (EC50). The experiment is classed as cell-based. In outline:
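CCL2 in supernatants was quantified by two-antibody HTRF FRET, read at 620 and 665 nm after overnight RT incubation, with IC50 derived from delta ratios. Cells were SV40-transformed mouse MLE12, treated with duplicate 6-point compound series for 1 h before 30 h TNF-α (20 ng/ml final) stimulation.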

The structures appear in SMILES notation. pEC50, pIC50: −log10 of the molar value. Like-named read-outs stand apart in the source and are kept apart here.

Sequence of OGG1 (O15527 whole entry): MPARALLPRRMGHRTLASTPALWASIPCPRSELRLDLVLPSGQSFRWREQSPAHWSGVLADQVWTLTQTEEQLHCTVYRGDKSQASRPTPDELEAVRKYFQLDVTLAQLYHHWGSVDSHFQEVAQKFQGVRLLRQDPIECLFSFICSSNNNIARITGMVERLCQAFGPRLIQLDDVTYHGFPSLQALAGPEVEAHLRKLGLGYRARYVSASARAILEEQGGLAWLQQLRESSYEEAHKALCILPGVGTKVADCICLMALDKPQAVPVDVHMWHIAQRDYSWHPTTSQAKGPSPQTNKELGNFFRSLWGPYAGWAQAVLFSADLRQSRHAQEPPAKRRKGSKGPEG

In the case of `COc1cc(NC(=O)N2CCC(n3c(=O)[nH]c4c(Br)cccc43)CC2)ccc1C` [Example 75, 4-(4-Bromo-2-oxo-2,3-dihydro-1H-1,3-benzodiazol-1-yl)-N-(3-methoxy-4-methylphenyl)piperidine-1-carboxamide], the pIC50 in experiment [1] was 6.65; in experiment [2] (Mus musculus, MLE12, 24 h), 4.98; in experiment [2], 4.89. Besides, the negative logarithm of the EC50 (pEC50) in experiment [3] is 4.40; in experiment [3] (Mus musculus, MLE12, 30 h), 4.47.
Consider `Cc1ccc(NC(=O)[C@H]2CC[C@@H](n3c(=O)[nH]c4c(Br)cccc43)CC2)cc1O` [Example 221, Cis-4-(4-bromo-2-oxo-2,3-dihydro-1H-1,3-benzodiazol-1-yl)-N-(3-hydroxy-4-methylphenyl)cyclohexane-1-carboxamide], for which the negative-log IC50 (pIC50) in experiment [1] was 7.57; in experiment [2] (Mus musculus, MLE12, 24 h), 5.11. The pEC50 in experiment [3] (Mus musculus, MLE12, 30 h) is 4.82.
For `COc1ccc(NC(=O)[C@H]2CC[C@@H](n3c(=O)[nH]c4c(Cl)cccc43)CC2)cc1` [Example 147, (Cis)-4-(4-chloro-2-oxo-2,3-dihydro-1H-1,3-benzodiazol-1-yl)-N-(4-methoxyphenyl)cyclohexane-1-carboxamide], in that order: 7.44, 4.75 and 4.49.
For `COc1cc(NC(=O)[C@H]2CC[C@@H](n3c(=O)[nH]c4c(C(=O)N(C)C5CCN(C)C5)cccc43)CC2)ccc1C` (stereo partly drawn) [Example 277, N-Methyl-N-(1-methylpyrrolidin-3-yl)-2-oxo-1-[cis-4-[(3-methoxy-4-methylphenyl)carbamoyl]cyclohexyl]-2,3-dihydro-1H-1,3-benzodiazole-4-carboxamide], the negative logarithm of the IC50 (pIC50) in experiment [1] was 7.32; in experiment [2] (Mus musculus, MLE12, 24 h) it was 4.82. Also, in experiment [3] (Mus musculus, MLE12, 30 h), the pEC50 was 4.54.
`COc1ccc(NC(=O)[C@H]2CC[C@@H](n3c(=O)[nH]c4c(Br)cccc43)CC2)cc1C` [Example 126, (Cis)-4-(4-bromo-2-oxo-2,3-dihydro-1H-1,3-benzodiazol-1-yl)-N-(4-methoxy-3-methylphenyl)cyclohexane-1-carboxamide]: the negative logarithm of the IC50 (pIC50) is 7.92 in experiment [1] and 4.81 in experiment [2] (Mus musculus, MLE12, 24 h). The pEC50 in experiment [3] (Mus musculus, MLE12, 30 h) was 4.58.
Turning to `COc1cc(NC(=O)[C@H]2CC[C@@H](n3c(=O)[nH]c4c(N(C)C5CCN(C)C5)cccc43)CC2)ccc1C` (stereo partly drawn) [Example 296, Cis-N-(3-Methoxy-4-methylphenyl)-4-{4-[methyl(1-methylpyrrolidin-3-yl)amino]-2-oxo-2,3-dihydro-1H-1,3-benzodiazol-1-yl}cyclohexane-1-carboxamide], the pIC50 in experiment [1] is 7.54; in experiment [2] (Mus musculus, MLE12, 24 h) it was 4.87. For the same compound, the pEC50 in experiment [3] (Mus musculus, MLE12, 30 h) was 4.98.
In the same order, the values of `O=C(Nc1ccc(Cl)c(Cl)c1)N1CCC(n2c(=O)[nH]c3c(Br)cccc32)CC1` [Example 27, 4-(4-Bromo-2-oxo-2,3-dihydro-1H-1,3-benzodiazol-1-yl)-N-(3,4-dichlorophenyl)piperidine-1-carboxamide] are 6.31, 5.11 and 4.79.
In the same order, the values of `COc1cc(NC(=O)[C@H]2CC[C@@H](n3c(=O)[nH]c4c(Br)cccc43)CC2)ccc1Cl` [Example 122, (Cis)-4-(4-bromo-2-oxo-2,3-dihydro-1H-1,3-benzodiazol-1-yl)-N-(4-chloro-3-methoxyphenyl)cyclohexane-1-carboxamide] are 7.15, 5.35 and 4.85.
As for `COc1cc(NC(=O)[C@H]2CC[C@@H](n3c(=O)[nH]c4c(NCCN(C)C)cccc43)CC2)ccc1C` [Example 280, Cis-4-(4-{[2-(dimethylamino)ethyl]amino}-2-oxo-2,3-dihydro-1H-1,3-benzodiazol-1-yl)-N-(3-methoxy-4-methylphenyl)cyclohexane-1-carboxamide], the pIC50 is 7.56 in experiment [1] and 4.78 in experiment [2] (Mus musculus, MLE12, 24 h). For the same compound, the pEC50 in experiment [3] (Mus musculus, MLE12, 30 h) is 4.61.

Values taken from US11970474B2, “Substituted benzodiazoles and use thereof in therapy” (THOMAS HELLEDAYS STIFTELSE FÖR MEDICINSK FORSKNING, priority 2018, dated 2024).
